The subject of one series is Plg GII. Put plainly: HTP 96-well SAXS titration: ligand-induced closed-to-open conformational change of Plg GII. As to Rg: values in Å. The series is classed as biochemical, human. The settings on record: for Plg conformational change (efficacy in words) / Rg: HTP SAXS; for Plg conformational change (efficacy in words): 0.5 mg/mL Plg, pH 7.4, 16 °C, MK12 up to 10 mM; for Kopen: concentration of ligand at which 50% of Plg GII is open, 0.5 mg/mL Plg GII, 100 mM sodium phosphate pH 7.4, 5% glycerol, 15–30 min incubation, 16 °C, Rg from SAXS, fit with Hill slope; for Fold (GII/GI) of Kopen: Kopen Plg GII / Kopen Plg GI; for Kopen for GII higher than for GI: Kopen Plg GII versus Plg GI; for Kopen of EACA relative to TXA, GII: EACA versus TXA; for Kopen fold lower than L-lysine: Kopen for L-lysine 7.47 ± 1.12 mM. As for the experimental part: An HTP assay to study the kinetics of Plg conversion from a closed to an open state was established for this work using Plg GII (see Section 4 and Figure 2).
(§1) Figure 2 Overview of the high-throughput (HTP) kinetic studies of Plg conformational change. In this HTP assay, ligand-induced Plg conformational change is set up in a 96-well plate format. (a) Ligands at the study concentration are mixed with Plg and incubated for 30 min. (b,c) The samples flowed past the X-ray beam in a quartz capillary, and scattering images were collected. (d) The resulting 2D scattering profile is averaged and buffer subtracted. (e). Rg values are derived via Guinier analysis (f) and then normalized before plotting against ligand concentration. The plot is fitted to a multi-site binding model, and Kopen, the ligand concentration required to induce 50% open Plg, is derived. Kopen is a kinetic parameter indicative of ligand efficacy or stability of closed conformation.
(§2) EACA, TXA, and L-lysine were purchased from Sigma-Aldrich (St Louis, MO, USA), whereas peptides MK12, NK55, and CK10 were purchased from GL Biochem (Shanghai, China). Solutions of EACA, TXA, and L-lysine (0.5–1.0 M) were prepared in ultrapure water. The peptide ligands are slightly acidic and therefore were dissolved in 0.1 M NH4OH with gentle sonication. MK12 and CK10 were prepared as 20 mM stock solution, and NK55 was prepared as a 625 μM stock solution.
(§3) For the SEC-SAXS experiment, in-line size exclusion chromatography using a WTC-010S5 column (WYATT) with a co-flow setup was used. For the HTP assays, 1 mg/mL protein samples were mixed 1:1 (v/v) with effector solutions to a final volume of 50 μL in a 96-well plate and incubated for 15–30 min before data collection at 16 °C. The final protein concentration for these experiments was 0.5 mg/mL in the assay buffer unless otherwise specified.
For each sample, a matching buffer was used for background scatter subtraction. To minimize the effect of radiation damage, 50 μL samples were flowed past the X-ray beam in a 1.5 mm diameter quartz capillary at 4 μL.s^−1. Then, 15 to 20 2D scattering images were collected on a Pilatus 1M X-ray detector (Dectris, Baden-Daettwil, Swizerland) using 18 × 1 s exposures. The images were averaged, and the background was subtracted using the Scatterbrain software v.2.82 available at the Australian Synchrotron
For each titration series, the Rg values were normalized as follows: Normalized Rg=Rg− minimum Rg/maximum Rg− minimum Rg

Series [1] deals with Plg, mixed glycoform sample. The settings on record: cited from earlier work. As for the experimental part:
To analyze the transition profiles of Plg recorded from the fully closed to the fully open forms, we fitted the kinetic data as follows: the Rg of Plg GII in 0 mM EACA (32 Å) was defined as closed. The Rg of Plg in 20 m ...

The conditions of series [2]: in vivo, up to, no reference given; cited from earlier work. From the text: Importantly, our data support the notion that these lysine analogues can potentially outcompete the binding of Plg to its binding proteins Plg-RKT and α2AP (Figure S6) at a therapeutic dosage in vivo (plasma ...
The subject of another series is Plg. The series can be described thus: Plg activation by tPA with chromogenic substrate S-2251 (Kactivation). The settings on record: Kactivation by tPA compared to Kopen; 0.25 μM Plg, 0.01 μM tPA, 1 h, 28 °C, 0.2 mM S-2251, A405 nm.
For another series, the system named is Plg GI. Put plainly: HTP 96-well SAXS titration: ligand-induced closed-to-open conformational change of Plg GI. The class given is biochemical, human. Conditions: for Kopen: concentration of ligand at which 50% of Plg GI is open, 0.5 mg/mL Plg, 100 mM sodium phosphate pH 7.4, 5% glycerol, 15–30 min incubation, 16 °C, Rg from SAXS. The procedure: as §1
Thus, we also performed kinetics studies on GI and GII to verify this hypothesis using EACA and TXA in the HTP format (Figure S4, Table 1).
as §2, §3
For each sample, a matching buffer was used for background scatter subtraction. To minimize the effect of radiation damage, 50 μL samples were flowed past the X-ray beam in a 1.5 mm diameter quartz capillary at 4 μL.s^−1. […]

Series [3] in a line: SEC-SAXS and Guinier/P(r) analysis of Plg conformation. As to all read-outs here: values in Å. The class given is physicochemical, human. Conditions: for Dmax (maximum diameter): P(r); for Rg (radius of gyration): SEC-SAXS, Guinier approximation. As for the experimental part:
Plg was isolated and purified from human plasma from Red Cross Blood Bank Australia via three-step purification as previously described. Plg GI and GII were prepared with a TXA gradient (Figure S3). Closed Plg was prepared via exhaustive dialysis of purified protein into the assay buffer (100 mM sodium phosphate pH 7.4, 5% glycerol). Proteins were concentrated to 1 mg/mL in centrifugal filters (Merck Millipore, Burlington, MA, USA). The final filtrate was kept as a solvent blank for SAXS experiments.
Experiments were performed at the Australian Synchrotron SAXS/WAXS beamline using a fixed energy of 12 keV and a camera length of 2.6 m.
as §3
Averaged SAXS data were processed with the ATSAS 2.7.2 software package (EMBL Hamburg, Germany). PRIMUS [33] was used for determining the radius of gyration (Rg) and protein molecular weight via Guinier approximation and the particle distance distribution function P(r) using indirect Fourier transform.
Background: SEC sorts molecules by how far they enter the pores of the column.

The mark [4] stands for this setting: open conformation, 10 mM EACA (Figure 1).

Where “and” joins values, the source holds several entries; their conditions need not be identical. Identical values can stand only once. Entries after “also recorded” stand apart in the source; their conditions may differ.

On to “398NPSAPRELKEQQDSPGNKDFLQSLKGFPRGDKLFGPDLKLVPPMEEDYPQFGSPK452 [NK55, peptide corresponding to the last 55 residues of α2AP]”, for which the “Plg conformational change (efficacy in words)” value (shortened to “Plg conformational change”) in the series on Plg GII (Plg GII) is reported as “confers a higher efficiency in inducing conformational change”. Besides, the “more efficacious than CK10 (Kopen)” value in the series with Plg GII (Plg GII, versus CK10) was ~ 10 fold. Besides, the “more efficacious than L-lysine (Kopen)” value with Plg GII (Plg GII, versus L-lysine) is ~ 100 fold. The same molecule displayed a Kopen in the series with Plg GII of 0.08 ± 0.05 mM.
Consider “441MEEDYPQFGSPK452 [MK12, peptide corresponding to the last 12 residues of α2AP]”, for which the “Plg conformational change” value in the series with Plg GII (Plg GII) is listed as “did not observe any change in the SAXS profile of Plg GII; also recorded: could not detect any conformational change; also recorded: did not induce a conformational transition even at 10 mM; also recorded: not functional”.
One may read the Hill slope as a measure of the steepness of the concentration-response curve. Consider `NCCCCCC(=O)O` [EACA, ε-aminocaproic acid], for which, in series [1], the “Kopen (previously reported)” value is recorded as 0.45 mM. Besides, the “plasma concentration at therapeutic dosage” value in series [2] is given as ~ 10 mM. In addition, the “Kactivation higher than Kopen” value in the series on Plg was over 8 fold. Moreover, the “Kopen of EACA relative to TXA, GI” value in the series on Plg GI (Plg GI, EACA versus TXA) is on record as ~ 3 fold. In the series with Plg GI, this molecule displayed a Kopen of 0.20 ± 0.01 mM. The same molecule showed a Hill slope in the series with Plg GII (EACA titration 0–20 mM, Plg GII, positive cooperativity) of 1.5. In the series on Plg GII, the “Fold (GII/GI) of Kopen” value is listed as 1.75; the “Kopen for GII higher than for GI” value was ~ 1.75 fold; the Kopen was 0.35 mM and 0.35 ± 0.02 mM. In the series with Plg GII (Plg GII), the “Kopen of EACA relative to TXA, GII” value is ~ 3 fold and the “Kopen fold lower than L-lysine” value is 20 fold. Also, the “Kopen of EACA relative to TXA, GII” value with Plg GII (Plg GII, listed as ε-aminocaproic acid (EACA)) is given as “approximately three times greater than that of tranexamic acid (TXA)”.
Turning to `NCCCC[C@H](N)C(=O)O` [L-lysine], the “Kopen fold relative to CK10” value in the series with Plg GII (L-lysine concentration required versus CK10, Plg GII) was ~ 10 fold. Moreover, in the series on Plg GII (L-lysine concentration required versus EACA, Plg GII), the “Kopen fold relative to EACA” value is given as “more than 20 fold”. In the series with Plg GII (Plg GII), the “Plg conformational change” value is on record as “poor substrate”. The Kopen with Plg GII was found to be 7.47 ± 1.12 mM.
In the case of `NC[C@H]1CC[C@H](C(=O)O)CC1` [TXA, tranexamic acid], in series [2], the “plasma concentration at therapeutic dosage” value was ~ 1 mM. The “Kactivation higher than Kopen” value in the series with Plg was over 3.5 fold. In the series with Plg GI, this molecule gave a Kopen of 0.068 ± 0.002 mM. Besides, in the series on Plg GII, the “Fold (GII/GI) of Kopen” value was 1.76, the “Kopen for GII higher than for GI” value is given as ~ 1.75 fold and the Kopen is recorded as 0.12 ± 0.008 mM. Besides, in the series on Plg GII (Plg GII), the “Plg conformational change” value was “most efficacious ligand” and the “Kopen fold lower than L-lysine” value is 60 fold.
As to “C139EQSKLFDSK147 [CK10, synthetic peptide corresponding to a C-terminal peptide of Plg-RKT]”, the “Plg conformational change” value in the series on Plg GII (Plg GII) is “highly efficacious”. Besides, the Kopen in the series on Plg GII worked out at 0.73 ± 0.24 mM.
Turning to “Plg GII: human plasminogen glycoform II, purified from human plasma”, the “Dmax (maximum diameter)” value stood at 105 Å in series [3] (closed conformation (Figure 1)) and 170 Å in series [3] (setting [4]). For the same molecule, in series [3] (Porod plot, closed conformation), the “diameter of approximate spheroidal particle” value is recorded as about 78 Å. Moreover, the “Rg of closed Plg” value in series [3] (SEC-SAXS comparison of closed GI and GII (Figure 5)) turned out to be 31.8 ± 0.6 Å. For the same molecule, the “Rg (radius of gyration)” value came to 31.7 ± 0.11 Å in series [3] (closed conformation (Figure 1)) and 48.8 ± 0.9 Å in series [3] (setting [4]). Moreover, the “conformational stability of closed form” value with Plg GII (GII versus GI, from Kopen of EACA and TXA, listed as GII) is listed as “more stable than that of GI”. In addition, the Rg with Plg GII (0 mM EACA, defined as closed) is recorded as 32 Å; in the series with Plg GII (20 mM EACA, defined as open), 49 Å.

(Values after article PMC10531915, “A High-Throughput Small-Angle X-ray Scattering Assay to Determine the Conformational Change of Plasminogen” (International Journal of Molecular Sciences, 2023).)
